Measured values reported in patent publication US4124726A, “Anti-inflammatory agent of benzoyl derivative” (priority 1976, dated 1978).
Where two headings read alike, the source gives them in different places.

Legend:
carragheenin edema = assay: acute carragheenin edema inhibition (anti-inflammatory effect); assay type: in vivo, male rats; conditions: for Anti-inf. (edema inhibition rate) / inhibition in vivo at 100 mg/kg: 100 mg/kg oral; for inhibition in vivo at 100 mg/kg / ED50: Rattus norvegicus; for inhibition in vivo at 100 mg/kg: read-out: Anti-inf. (edema inhibition rate); for ED50: read-out: 50% inhibition rate ED50
Method: The edema was induced by subcutaneous injection of 1% carraheenin suspension in saline to the hind paws of male rats weighing 150 to 180 g. Each sample was orally given at the dosage of 100 mg/kg just before the inoculation of carragheenin.

platelet aggregation = assay: blood platelet aggregation inhibition, collagen as inducer; assay type: cell-based; conditions: 10^-4 mole, rabbit PRP; for inhibition at 100 µM: Oryctolagus cuniculus, Platelet, read-out: Blood platelet agg. inh. (percentage inhibition of platelet aggregation)
Text: Blood platelet aggregation inhibiting effect
Male rabbits (Japan original white strain 3.3 to 3.6 kg) were anesthetized with Thiopental sodium and blood was sampled from the carotid artery.

in vivo = conditions: mouse, po
Method: Each sample was dissolved in olive oil or dispersed in 1% Tween 20 aqueous solution.

thrombosis = assay: inhibiting effect on thrombosis (arterio-venous by-pass, silk thread); assay type: in vivo, SD type male rats; conditions: for inhibition in vivo at 100 mg/kg: Rattus norvegicus, read-out: Thrombosis inh.
Method: Inhibiting effect on thrombosis:
The inhibiting effects of the samples of the invention on thrombosis were tested by the following test method.
A 0.5 ml of 50 μ/ml of the heparin physiological saline was added through the polyethylene tube before the first blood circulation. After the blood circulation for 15 minutes, the circulation was stopped in the middle of the tubing at artery side with a pinch cock.
Then, 0.2 ml of the heparin physiological saline was added to remove the blood coagulates on the tubing wall and another new polyethylene tubing filled with the heparin solution and containing a piece of new silk thread was attached between the venous and artery tubing ends.
The blood circulation was reestablished by opening the pinch cock. After 15 minutes, the wet weight of thrombus on the silk thread was similarly measured. In the same manner, the third circulation was performed and wet weight of thrombus measured.
The amount of thrombus was given by the equation A. [formula] Each sample was suspended in an aqueous solution of sodium carboxymethyl cellulose and the oral dose of the suspension (100 mg/kg) was performed at 5 hours before the first blood circulation. The amount of thrombus after the oral dose of the sample was calculated in the same manner as that of control circulations.
The thrombosis inhibition rate was given by the equation B. [formula]

[1] = tested on: painful stretchings induced by acetic acid; assay: acetic acid induced stretching (analgesic effect); conditions: for Analgesic (percentage diminution of times of painful stretchings): 100 mg/kg oral, 0.7% acetic acid i.p., mice; for inhibition in vivo at 100 mg/kg: Mus musculus, po, read-out: Analgesic (percentage diminution of times of painful stretchings)
Method: Each sample was orally administrated in the dosage of 100 mg/kg before injection of acetic acid.

[2] = carragheenin edema, rats, Table 2
[3] = 100 mg/kg oral, 5 hours before first circulation, rats
[4] = oral, carragheenin edema, rats, Table 2

Compound	Anti-inf. (edema inhibition rate) (carragheenin edema; [2]) [%]	Blood platelet agg. inh. (percentage inhibition of platelet aggregation) (platelet aggregation) [%]	LD50 at 72 h (in vivo) [mg/kg]	Thrombosis inh. (thrombosis; [3]) [%]	Analgesic (percentage diminution of times of painful stretchings) [1] [%]	inhibition in vivo at 100 mg/kg (carragheenin edema; [2]) [%]	inhibition at 100 µM (platelet aggregation) [%]	inhibition in vivo at 100 mg/kg (thrombosis; [3]) [%]	inhibition in vivo at 100 mg/kg [1] [%]	ED50 (carragheenin edema; [4]) [mg/kg]	ED50 (carragheenin edema; po) [mg/kg]	inhibition in vivo at 100 mg/kg (thrombosis; po) [%]
COc1ccc(C(=O)C(=O)c2ccccc2)cc1	43.9	20.1	10000	18.3	10.2							
CCCCCCc1ccc(C(=O)c2ccc(C)cc2C)cc1 [Active ingredient No. 4]			4000			44.2	20.5	15.9	16.3			
CCCCc1ccc(C(=O)c2ccccc2F)cc1 [compound 8]		24.0			14.8			38		38		
CCCCc1ccc(C(=O)c2ccccc2)cc1 [compound 19]		18.6	2400		30.1			7.9		25		
CCCc1ccc(C(=O)c2ccccc2)cc1 [compound 20]		36.6	2000		17.3			4.1				
CC(C)c1ccc(C(=O)c2ccccc2)cc1 [compound 21]		8.6	2000		16.1			5.4				
CC(C)(C)c1ccc(C(=O)c2ccccc2)cc1 [compound 22]		9.5	2000		8.2			7.9				
O=C(c1ccccc1)c1ccccc1 [compound 27]	47.7	25.7	3700	25.9	13.2						120	
COc1ccc(C(=O)c2ccccc2)cc1 [compound 28]	44.1	20.4	> 10000		4.2							7.3
Cc1cc(C)c(C(=O)c2ccccc2)c(C)c1 [compound 30]			1500			64.7	8.7	44.8	13.4	45		
Cc1cc(C)c(C(=O)c2ccccc2)cc1C [compound 32]		12.4	2000		26.2			25				
CCCCc1ccc(C(=O)c2ccc(C)cc2)cc1 [compound 35]		11.3	> 10000					26.5				
Cc1ccc(C(=O)c2ccccc2)c(C)c1 [compound 37]		17.4	1000		9.8			5.3				
Cc1ccc(C)c(C(=O)c2ccccc2)c1 [compound 38]		20.9	1000		18.0			8.3		170		
CCCCc1ccc(C(=O)c2ccccc2C)cc1 [compound 40]		11.9	2000		20.3					120		
